For two compounds, EC50, Emax and inhibition results are on record in patent publication US10195185B2, “3-(1H-imidazo[4,5-C]pyridin-2-yl)-1H-pyrazolo[4,3-B]pyridines and therapeutic uses thereof” (Samumed, LLC, priority 2015, dated 2019).

Molecules are shown by their SMILES. pEC50: −log10 of the molar value.

What all share (assay type): cell-based
Test [1] has as its system Wnt activity (Wnt-responsive human Sp5 promoter, TCF/LEF binding sites) in SW480 colon carcinoma cells. As to the kind of experiment: Wnt activity screening assay: Sp5-Luc luciferase reporter gene in SW480 cells. To be noted: 10-point dose-response from 10 μM, incubated overnight. The essentials:
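Wnt-driven firefly luciferase in SW480 colon carcinoma cells reports pathway activity after overnight compound exposure (10 μM top concentration, 3-fold steps). Signal is normalized to DMSO controls.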

For test [2], the system named is SW480 colon cancer cells. As to the kind of experiment: Cell viability assay (CellTiter-Blue), four days. To be noted: Homo sapiens, 96 h; for pEC50: CellTiter-Blue cell viability. The essentials:
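SW480 cells (~2×10^3 per well) were exposed to compound for four days at 37 °C/5% CO2, using 8-point 1:3 dilutions from 10 μM to 0.0045 μM in duplicate. Viability was read by resazurin reduction (CellTiter-Blue, ~3 h, Ex 560/Em 590 nm). EC50 came from non-linear regression; above 10 μM, percent inhibition at 10 μM is given.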

The subject of test [3] is primary human mesenchymal stem cells (hMSCs). Description: Induction of chondrogenesis in hMSCs (nodule area, Rhodamine B / Nile Red). To be noted: TGF-β3 as positive control; for Emax: read-out: Max. Activity as % TGF-β3 activity. The essentials: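 Primary hMSCs (passage 3–6) in incomplete chondrogenic induction medium were treated 6 days at 37° C. with 1:3 dilutions (2700–10 nM in 96-well or 5000–2.2 nM in 384-well; 0.03% DMSO). Rhodamine B/Nile Red-stained nodule area was imaged, normalized to DMSO wells, and EC50 was set against TGF-β3 (10 ng/mL).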

Take `O=C(Nc1cncc(-c2ccc3[nH]nc(-c4nc5c(-c6ccc(Cl)s6)nccc5[nH]4)c3n2)c1)C1CCC1` [Compound 1056, N-(5-(3-(4-(5-Chlorothiophen-2-yl)-1H-imidazo[4,5-c]pyridin-2-yl)-1H-pyrazolo[4,3-b]pyridin-5-yl)pyridin-3-yl)cyclobutanecarboxamide]: the results for the negative-log EC50 (pEC50) in test [1] and in test [2] were 6.05 and 5.67, respectively. Further, the Emax in test [3] worked out at 60%. In test [3] (concentration required to induce 50% levels of chondrogenesis, read-out: Conc (nM) of 50% TGF-β3 activity), the EC50 was 30 nM.

For the compound `Cc1ncc(-c2ccc3[nH]nc(-c4nc5c(-c6cccc(F)c6)nccc5[nH]4)c3n2)s1` [Compound 1126, 5-(3-(4-(3-Fluorophenyl)-1H-imidazo[4,5-c]pyridin-2-yl)-1H-pyrazolo[4,3-b]pyridin-5-yl)-2-methylthiazole], the pEC50 in test [1] was 6.63; in test [2], less than 5.00. For the same compound, in test [2] (10 μM, read-out: percent inhibition at 10 μM (given for EC50 of >10 μM)), the inhibition at 10 µM was 26.6%. Besides, in test [3], the Emax is 43%.
